{"source": "patent US20210252023A1", "about": "“METHODS AND COMPOSITIONS FOR TREATING AND/OR PREVENTING THE PROGRESSION AND/OR ONSET OF AGE-RELATED NEURODEGENERATION” (Enterin, Inc., priority 2018, published 2021)", "key": {"[1]": {"experiment": "Dose response of delay in growth of BDF1 mice (Example 1, FIG. 2)", "format": "in vivo, B6D2F1 (BDF1) mice", "settings": "5 and 10 mg/kg IV; data not shown", "experimental": "An experiment was conducted to explore the dose response to a delay in growth of B6D2F1 (BDF1) mice to Aminsoterol 1436. 30 day old male BDF1 mice received either vehicle or Aminosterol 1436 intraveneously (IV) at 5 mg/kg or 10 mg/kg (n=15 for each treatment arm) every 3 days until 51 days of age. The Aminosterol 1436 was administered as a aqueous solution in water. BDF1 mice are available from Charles River Laboratories. The animals were fed standard lab chow, offered ad libitum. The animals were weighed and body length measured every 5 days. […] However, while the control animals reached maturity at 120 days, the animals that received 5 mg/kg of Aminosterol 1436 reached maturity at 150 days, corresponding to a 25% delay in reaching maturity, as measured by end weight. […] Most importantly, both treated and untreated animals reached normal adult dimensions, albeit at different rates."}, "[2]": {"experiment": "Brain distribution of radioactive Aminosterol 1436 after IV or ICV administration (FIG. 1)", "format": "in vivo", "settings": "radioactive compound, rat, peripheral vein (IV) or 3rd ventricle (ICV)", "excerpt": "The exact mechanism by which Aminosterol 1436 achieves its effect on preventing, delaying onset, and/or treating neurodegeneration, delaying maturity, retarding aging, and increasing potential lifespan is not known. However, without being bound by theory, Applicant theorizes that the effect of Aminosterol 1436 is likely in part due to the drug's effects on the hypothalamus within the brain of the animal."}, "[3]": {"experiment": "Neuroregeneration in treated adult mouse (cell number in brain areas)", "format": "in vivo", "excerpt": "The hypothalamus is of particular interest because it happens to be the site of localization of Aminosterol 1436 in the brain."}, "[4]": {"test_system": "HIV", "settings": "tissue culture; U.S. Pat. No. 5,763,430; cited from earlier work"}}, "note": "Entries after “also recorded” stand apart in the source; their conditions may differ."}
{"smiles": "CC(C)[C@@H](CC[C@@H](C)[C@H]1CC[C@H]2[C@@H]3[C@H](O)C[C@H]4C[C@@H](NCCCNCCCCNCCCN)CC[C@]4(C)[C@H]3CC[C@]12C)OS(=O)(=O)O", "note": "[Aminosterol 1436, trodusquemine]", "values": [{"measurement": "linear growth", "setting": "[1]", "value": "slowed to a corresponding degree"}, {"measurement": "accumulation in the brain", "setting": "[2]", "value": "accumulation of Aminosterol 1436 within the centers of the brain that control growth, maturation, and senescence; also recorded: accumulates within the centers of the brain that control growth, maturation and senescence"}, {"measurement": "neuroregeneration (number of cells in subependymal zone, olfactory bulb, hypothalamus, thalamus)", "setting": "[3]", "value": "stimulates neuroregeneration"}, {"measurement": "antiviral activity against HIV", "setting": "[4]", "value": "exhibits antiviral activity against HIV in tissue culture"}]}
